In patent EP0583821A1, “Atriopeptins, guanylate cyclase activators, and phosphodiesterase inhibitors as treatment for glaucoma, hydrocephalus and cerebral edema (cranial fluid volume dysfunction)” (THE GENERAL HOSPITAL CORPORATION, priority 1987, dated 1988):

Test system: albino rabbits
Assay: Intraocular pressure after unilateral intravitreal injection
Assay type: in vivo, rabbit
Experimental: The measurement of intraocular pressure (IOP), was performed using procedures similar to those described in Nathanson, Brit. J. Pharmacol., 73:97 (1981) and Nathanson, Current Eye Res., 4:191 (1985). Briefly, male (3-5 kg), New Zealand white rabbits were housed under standard conditions and exposed to a 12 hr light-dark cycle. IOP was measured with a Perkins applanation tonometer after topical anesthesia with 0.4% benoxinate (and 0.25% sodium fluorescein). The tonometer had been calibrated previously by connecting the anterior chamber of enucleated rabbit eyes to a manometer (and reservoir) and taking tonometer readings at different pressures. A number of preliminary IOP readings were made in order to accommodate the animals to the measurement procedure. Readings were then taken just prior to drug or vehicle injection and at 3, 9, 20, 27, 44, 51, 72, and 144 hours post-injection.
Following topical anesthesia with 0.4% benoxinate, rabbits received rat atrial natriuretic peptide 1-28 (rANP) via a 10 microliter, intravitreal injection, through a 30g 1/2" needle, the tip of which was positioned at the approximate center of the eye. Drug was dissolved in a solution of artificial aqueous humor containing (in mmol/liter): NaCl 130, KCl 2.7, […] 18.3, MgCl₂ 1.33, CaCl₂ 1.5, Glucose 10, HEPES 20, and L-ascorbic acid, 2.5. The contralateral eye received a 10 microliter injection of vehicle alone. In order to evaluate the possible effects of intravitreal injection, per se, on IOP, additional rabbits received a 10 microliter intravitreal injection of vehicle in one eye only.
The contralateral eye received intravitreal injection of vehicle alone. Over a period of 9 hours, the ipsilateral eyes underwent a marked decline in pressure of about 5mm (Hg). This degree of hypotension persisted until about 48 hours post-injection and then underwent a slow recovery over the following four days. The decrease in pressure, compared with pre-injection IOP, was statistically significant at all time points from 3 to 72 hours post-injection. Values shown are mean ± SEM. Filled circles represent the IOP in the ipsilateral eye; open circles represent the IOP in the contralateral eye. *(p < .05); **(p < .01), for paired Students T-test relative to preinjection pressure (time 0). […] During the entire period, no affect on pupillary diameter of either the ipsilateral or contralateral eye was noted.
This contralateral decrease was statistically significant (p <.05 vs. pre-injection IOP) at 20 and 44 hours following injection. […]

For “Ser-Leu-Arg-Arg-atriopeptin III (APIII) [rANP 1-28]”, the “persistence of hypotension post-injection” value (0.3 nmoles intravitreal) was “about 48 hours”, the “IOP in the contralateral, vehicle-injected eye” value (0.3 nmoles intravitreal in ipsilateral eye) was “also showed a decrease” and the “decline in intraocular pressure, ipsilateral eye” value (0.3 nmoles intravitreal, eight albino rabbits, over a period of 9 hours) was “about 5 mm (Hg)”. For the same substance, the “effect on pupillary diameter” value (ipsilateral or contralateral eye, entire period) was “no affect”.
